Values of other authors, collected in patent publication US20250262358A1, “SURGICAL SYSTEM AND METHODS OF USE” (MEDTRONIC, INC., priority 2021, published 2025).

Tested on: myofibroblast formation
Conditions: animal studies of capsular contracture with breast implants; Ajmal et al. (2003)

O=S(=O)([O-])CCS.[Na+] [MESNA, sodium 2-mercaptoethane sulfonate]
myofibroblast formation: diminish myofibroblast formation
